According to patent publication US12649733B2, “3,6-diamino-pyridazin-3-yl derivatives, pharmaceutical compositions containing them and their uses as pro-apoptotic agents” (LES LABORATOIRES SERVIER, priority 2019, dated 2026):

Tests used:
BCLXL = BCLXL (Homo sapiens, UniProt Q07817, V10N/V9A); test: Fluorescence polarisation assay (PUMA-based probe displacement); assay type: binding; further: 20 nM protein, 10 nM fluorescent probe
Procedure: Fluorescence polarization measures the rotation of a fluorescing species in solution, the larger the molecule the more polarized the fluorescence emission.
[[…]] (GST UniProtKB® primary accession number P08515 and BCLXL UniProtKB® primary accession number Q07817-1),
resulting in an increase in anisotropy. If a compound is added which competitively binds to the same site as the probe, thereby releasing it, anisotropy decreases due to the increased amount of free probe.
An 11-point serial dilution of each compound was prepared in DMSO, the final buffer conditions were 10 mM 4-(2-hydroxyethyl)-1-piperazineethanesulfonic acid [HEPES], 150 mM NaCl, 0.05% Tween 20, pH 7.4 and 5% DMSO. The final protein concentration in the assay was 20 nM with the fluorescent probe present at 10 nM. The experiments were incubated for 2 hours at 23° C. before fluorescence polarization was measured on a Biotek SynergyNeo plate reader (Excitation 485 nm, emission 525 nm, parallel and perpendicular reads). […] The KI values were determined from the IC50 values according to Cer et al, Nucleic Acids Res, 2009, Jul. 1: 37(WebServer issue): W441-W445.

H146 cells = test: H146 cell viability, MTT assay; assay type: cell-based; details: Homo sapiens, NCI-H146, 48 h, 48 h exposure
Procedure: (§1) MTT colorimetric assay is based on the mitochondrial reduction of tetrazolium salt by living cells. The viable cell number is proportional to the production of formazan salts, which can be read spectrophotometrically at 540 nm.
(§2) MOLT-4 and H146 cells were purchased from ATCC and cultivated in RPMI 1640 supplemented with 10% heat inactivated fetal bovine serum, penicillin (100 IU/ml), streptomycin (100 μg/ml) and L-glutamine (2 mM). Cells were cultured at 37° C. in a humidified atmosphere containing 5% CO2. Cells were seeded in 96 microwell plates (150 μL per well) and exposed to the compounds for 48 h (3.16 fold serially diluted; 9 concentrations each, triplicates). At the end of incubation time, 15 μL of MTT solution (5 mg/ml) were added per well and the cells were incubated for another 4 h. Then, 100 μL of 10% Sodium Dodecyl Sulfate (SDS)/HCl 10 mM were added per well and the plate was incubated overnight, before measurement of optical density at 540 nm. IC50s were calculated using standard four-parametric curve fitting.

MOLT-4 cells = test: MOLT-4 cell viability, MTT assay; assay type: cell-based; details: Homo sapiens, MOLT-4, 48 h, 48 h exposure
Procedure: as §1, §2

Sequence of BCLXL (Q07817 with tags, fused parts or gaps V9A/V10N): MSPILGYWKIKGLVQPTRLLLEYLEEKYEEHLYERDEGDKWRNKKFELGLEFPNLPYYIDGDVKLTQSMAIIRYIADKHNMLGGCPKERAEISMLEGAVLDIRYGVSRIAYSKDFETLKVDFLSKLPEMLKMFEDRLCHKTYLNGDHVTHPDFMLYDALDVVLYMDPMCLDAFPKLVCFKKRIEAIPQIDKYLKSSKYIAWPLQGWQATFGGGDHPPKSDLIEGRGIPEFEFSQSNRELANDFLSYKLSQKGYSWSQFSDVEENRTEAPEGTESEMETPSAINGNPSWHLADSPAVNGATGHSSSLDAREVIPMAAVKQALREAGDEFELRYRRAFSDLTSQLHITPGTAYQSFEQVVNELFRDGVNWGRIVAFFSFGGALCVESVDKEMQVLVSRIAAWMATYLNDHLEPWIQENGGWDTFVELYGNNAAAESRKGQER

SMILES | Ki (BCLXL) [nM] | IC50 (H146 cells) [nM] | IC50 (MOLT-4 cells) [nM]
Cc1c(Nc2cccc(C(=O)O)n2)nnc(Nc2nc3ccccc3s2)c1C [Example 2, 6-({6-[(1,3-Benzothiazol-2-yl)amino]-4,5-dimethylpyridazin-3-yl}amino)pyridine-2-carboxylic acid] | 330 | 12500 | –
CC(C)c1cc(Nc2nc(C(=O)O)cs2)nnc1Nc1nc2ccccc2s1 [Example 5, 2-({6-[(1,3-Benzothiazol-2-yl)amino]-5-(propan-2-yl)pyridazin-3-yl}amino)-1,3-thiazole-4-carboxylic acid] | 180 | 8210 | –
CC(C)c1cc(Nc2nc3ccccc3s2)nnc1Nc1nc(C(=O)O)cs1 [Example 6, 2-({6-[(1,3-Benzothiazol-2-yl)amino]-4-(propan-2-yl)pyridazin-3-yl}amino)-1,3-thiazole-4-carboxylic acid] | 490 | > 44900 | –
Cc1c(Nc2nc3ccccc3s2)nnc(Nc2nc(C(=O)O)cs2)c1C(C)C [Example 8, 2-({6-[(1,3-Benzothiazol-2-yl)amino]-5-methyl-4-(propan-2-yl)pyridazin-3-yl}amino)-1,3-thiazole-4-carboxylic acid] | 87 | 10500 | –
Cc1c(Nc2nc(C(=O)O)c(CCCOc3ccccc3)s2)nnc(Nc2nc3ccccc3s2)c1C [Example 9, 2-({6-[(1,3-Benzothiazol-2-yl)amino]-4,5-dimethylpyridazin-3-yl}amino)-5-(3-phenoxypropyl)-1,3-thiazole-4-carboxylic acid] | 4 | 207 | 2320
Cc1c(Nc2nc(C(=O)O)cs2)nnc(Nc2nc3ccccc3s2)c1C(C)C [Example 10, 2-({6-[(1,3-Benzothiazol-2-yl)amino]-4-methyl-5-(propan-2-yl)pyridazin-3-yl}amino)-1,3-thiazole-4-carboxylic add] | 410 | 8310 | –
Cc1c(Nc2nc(C(=O)O)c(CCCOc3ccccc3F)s2)nnc(Nc2nc3ccccc3s2)c1C [Example 13, 2-({6-[(1,3-Benzothiazol-2-yl)amino]-4,5-dimethylpyridazin-3-yl}amino)-5-[3-(2-fluorophenoxy)propyl]-1,3-thiazole-4-carboxylic acid] | 3.8 | 292 | 2230
Cc1c(Nc2nc(C(=O)O)c(CCCOc3ccc(C(=O)N(C)C)cc3F)s2)nnc(Nc2nc3ccccc3s2)c1C [Example 14, 2-({6-[(1,3-Benzothiazol-2-yl)amino]-4,5-dimethylpyridazin-3-yl}amino)-5-{3-[4-(dimethylcarbamoyl)-2-fluorophenoxy]propyl}-1,3-thiazole-4-carboxylic acid] | 3.2 | 2110 | –
Cc1c(Nc2nc3ccccc3s2)nnc(Nc2nc(C(=O)O)cs2)c1CO [Example 18, 2-({6-[(1,3-Benzothiazol-2-yl)amino]-4-(hydroxymethyl)-5-methylpyridazin-3-yl}amino)-1,3-thiazole-4-carboxylic acid] | 78 | > 15000 | –
Cc1c(Nc2nc(C(=O)O)c(CCCOc3ccc(CCCN(C)C)cc3F)s2)nnc(Nc2nc3ccccc3s2)c1C [Example 22, 2-({6-[(1,3-Benzothiazol-2-yl)amino]-4,5-dimethylpyridazin-3-yl}amino)-5-(3-{4-[3-(dimethylamino)propyl]-2-fluorophenoxy}propyl)-1,3-thiazole-4-carboxylic acid] | 2.9 | 2130 | –
O=C(O)c1cccc(Nc2nnc(Nc3nc4ccccc4s3)c3c2CCCC3)n1 [Example 24, 6-[[4-(1,3-Benzothiazol-2-ylamino)-5,6,7,8-tetrahydrophthalazin-1-yl]amino]pyridine-2-carboxylic acid] | 140 | 6930 | 3310
O=C(O)c1cccc(Nc2nnc(Nc3nc4ccccc4s3)c3c2CCC3)n1 [Example 25, 6-[[4-(1,3-benzothiazol-2-ylamino)-6,7-dihydro-5H-cyclopenta[d]pyridazin-1-yl]amino]pyridine-2-carboxylic acid] | 990 | 3180 | 7130
Cc1c(Nc2nc(C(=O)O)cs2)nnc(Nc2nc3ccccc3s2)c1CO [Example 27, 2-({6-[(1,3-Benzothiazol-2-yl)amino]-5-(hydroxymethyl)-4-methylpyridazin-3-yl}amino)-1,3-thiazole-4-carboxylic acid] | 310 | > 15000 | > 13000
COCc1c(Nc2nc3ccccc3s2)nnc(Nc2nc(C(=O)O)cs2)c1C [Example 28, 2-({6-[(1,3-Benzothiazol-2-yl)amino]-5-(methoxymethyl)-4-methylpyridazin-3-yl}amino)-1,3-thiazole-4-carboxylic acid] | 130 | > 15000 | > 15000
CCOCc1c(Nc2nc(C(=O)O)cs2)nnc(Nc2nc3ccccc3s2)c1C [Example 30, 2-({6-[(1,3-Benzothiazol-2-yl)amino]-4-(ethoxymethyl)-5-methylpyridazin-3-yl}amino)-1,3-thiazole-4-carboxylic acid] | 81 | > 15000 | 8670

Second part, the molecule after the results:

Ki (BCLXL) [nM] | IC50 (H146 cells) [nM] | IC50 (MOLT-4 cells) [nM] | SMILES
27 | 913 | 1620 | COCCCc1sc(Nc2nnc(Nc3nc4ccccc4s3)c(C)c2C)nc1C(=O)O [Example 12]
37 | > 15000 | – | CCc1c(Nc2nc(C(=O)O)cs2)nnc(Nc2nc3ccccc3s2)c1C [Example 15, 2-({6-[(1,3-Benzothiazol-2-yl)amino]-4-ethyl-5-methylpyridazin-3-yl}amino)-1,3-thiazole-4-carboxylic acid]
52 | 8040 | – | CCc1c(Nc2nc3ccccc3s2)nnc(Nc2nc(C(=O)O)cs2)c1C [Example 16, 2-({6-[(1,3-Benzothiazol-2-yl)amino]-5-ethyl-4-methylpyridazin-3-yl}amino)-1,3-thiazole-4-carboxylic acid]
30 | ≥ 12800 | – | Cc1c(Nc2nc3ccccc3s2)nnc(Nc2nc(C(=O)O)cs2)c1C1CC1 [Example 19, 2-({6-[(1,3-Benzothiazol-2-yl)amino]-4-cyclopropyl-5-methylpyridazin-3-yl}amino)-1,3-thiazole-4-carboxylic acid]
40 | ≥ 12700 | 13000 | O=C(O)c1csc(Nc2nnc(Nc3nc4ccccc4s3)c3c2CCC3)n1 [Example 23, 2-[[1-(1,3-Benzothiazol-2-ylamino)-6,7-dihydro-5H-cyclopenta[d]pyridazin-4-yl]amino]thiazole-4-carboxylic acid]
2.6 | 4190 | 2340 | CN(c1cc(C2CC2)c(Nc2nc3ccccc3s2)nn1)c1nc(C(=O)O)cs1 [Example 31, 2-({6-[(1,3-Benzothiazol-2-yl)amino]-5-cyclopropylpyridazin-3-yl}(methyl)amino)-1,3-thiazole-4-carboxylic acid]
890 | – | – | Cc1cc(N(C)c2nc(C(=O)O)c(C3CN(CC(C)C)C3)s2)nnc1Nc1nc2ccccc2s1 [Example 156, 2-({6-[(1,3-Benzothiazol-2-yl)amino]-5-methylpyridazin-3-yl}(methyl)amino)-5-[1-(2-methylpropyl)azetidin-3-yl]-1,3-thiazole-4-carboxylic acid]
1200 | – | – | Cc1cc(N(C)c2nc(C(=O)O)c(C3CN(C)C3)s2)nnc1Nc1nc2ccccc2s1 [Example 157, 2-({6-[(1,3-Benzothiazol-2-yl)amino]-5-methylpyridazin-3-yl}(methyl)amino)-5-(1-methylazetidin-3-yl)-1,3-thiazole-4-carboxylic acid]
43 | – | – | Cc1cc(N(CCCC(=O)O)c2nc(C(=O)O)cs2)nnc1Nc1nc2ccccc2s1 [Example 158, 2-({6-[(1,3-Benzothiazol-2-yl)amino]-5-methylpyridazin-3-yl}(3-carboxypropyl)amino)-1,3-thiazole-4-carboxylic acid]
180 | – | – | Cc1cc(N(C)c2nc(C(=O)O)c(C3CN(C(=O)NCc4ccccc4)C3)s2)nnc1Nc1nc2ccccc2s1 [Example 159, 2-({6-[(1,3-Benzothiazol-2-yl)amino]-5-methylpyridazin-3-yl}(methyl)amino)-5-[1-(benzylcarbamoyl)azetidin-3-yl]-1,3-thiazole-4-carboxylic acid]
220 | – | – | CCNC(=O)N1CC(c2sc(N(C)c3cc(C)c(Nc4nc5ccccc5s4)nn3)nc2C(=O)O)C1 [Example 160, 2-({6-[(1,3-Benzothiazol-2-yl)amino]-5-methylpyridazin-3-yl}(methyl)amino)-5-[1-(ethylcarbamoyl)azetidin-3-yl]-1,3-thiazole-4-carboxylic acid]
